# Test results: ChEMBL document CHEMBL4308841, “Synthesis, in vitro antiproliferative activity, and kinase inhibitory effects of pyrazole-containing diarylureas and diarylamides” (Eur J Med Chem, 2018)
# How the values were obtained:
# NCI-H522 = experiment: Growth inhibition of human NCI-H522 cells assessed as cell growth at 10 uM incubated for 48 hrs by sulforhodamine B assay relative to control; assay type: functional; details: NCI-H522, 48 h, read-out: Activity
# HCT-116 = experiment: Growth inhibition of human HCT116 cells incubated for 48 hrs by sulforhodamine B assay; assay type: functional, cell-based; details: HCT-116, 48 h
# U-251 [1] = experiment: Growth inhibition of human U251 cells incubated for 48 hrs by sulforhodamine B assay; assay type: functional, cell-based; details: U-251, 48 h
# MDA-MB-435 = experiment: Growth inhibition of human MDA-MB-435 cells incubated for 48 hrs by sulforhodamine B assay; assay type: functional, cell-based; details: MDA-MB-435, 48 h
# UACC-257 = experiment: Growth inhibition of human UACC257 cells incubated for 48 hrs by sulforhodamine B assay; assay type: functional, cell-based; details: UACC-257, 48 h
# T47D = experiment: Growth inhibition of human T47D cells incubated for 48 hrs by sulforhodamine B assay; assay type: functional, cell-based
# K562 = experiment: Growth inhibition of human K562 cells assessed as cell growth at 0.01 uM incubated for 48 hrs by sulforhodamine B assay relative to control; assay type: functional; details: K562, 48 h, read-out: Activity
# RPMI-8226 [2] = experiment: Growth inhibition of human RPMI8226 cells assessed as cell growth at 0.01 uM incubated for 48 hrs by sulforhodamine B assay relative to control; assay type: functional; details: RPMI-8226, 48 h, read-out: Activity
# HT-29 [3] = experiment: Growth inhibition of human HT-29 cells assessed as cell growth at 0.01 uM incubated for 48 hrs by sulforhodamine B assay relative to control; assay type: functional; details: HT-29, 48 h, read-out: Activity
# KM12 = experiment: Growth inhibition of human KM12 cells assessed as cell growth at 0.01 uM incubated for 48 hrs by sulforhodamine B assay relative to control; assay type: functional; details: KM12, 48 h, read-out: Activity
# OVCAR-5 = experiment: Growth inhibition of human OVCAR5 cells assessed as cell growth at 0.01 uM incubated for 48 hrs by sulforhodamine B assay relative to control; assay type: functional; details: OVCAR-5, 48 h, read-out: Activity
# NCI/ADR-RES = experiment: Growth inhibition of human NCI/ADR-RES cells assessed as cell growth at 0.01 uM incubated for 48 hrs by sulforhodamine B assay relative to control; assay type: functional; details: read-out: Activity
# RPMI-8226 [4] = experiment: Growth inhibition of human RPMI8226 cells assessed as cell growth at 0.1 uM incubated for 48 hrs by sulforhodamine B assay relative to control; assay type: functional; details: RPMI-8226, 48 h, read-out: Activity
# HT-29 [5] = experiment: Growth inhibition of human HT-29 cells assessed as cell growth at 0.1 uM incubated for 48 hrs by sulforhodamine B assay relative to control; assay type: functional; details: HT-29, 48 h, read-out: Activity
# OVCAR-3 [6] = experiment: Growth inhibition of human OVCAR3 cells assessed as cell growth at 0.1 uM incubated for 48 hrs by sulforhodamine B assay relative to control; assay type: functional; details: OVCAR-3, 48 h, read-out: Activity
# COLO 205 = experiment: Growth inhibition of human COLO205 cells assessed as cell growth at 1 uM incubated for 48 hrs by sulforhodamine B assay relative to control; assay type: functional; details: COLO 205, 48 h, read-out: Activity
# LOX IMVI = experiment: Growth inhibition of human LOXIMVI cells assessed as cell growth at 1 uM incubated for 48 hrs by sulforhodamine B assay relative to control; assay type: functional; details: read-out: Activity
# UACC-62 = experiment: Growth inhibition of human UACC62 cells assessed as cell growth at 1 uM incubated for 48 hrs by sulforhodamine B assay relative to control; assay type: functional; details: UACC-62, 48 h, read-out: Activity
# SK-OV-3 = experiment: Growth inhibition of human SKOV3 cells assessed as cell growth at 1 uM incubated for 48 hrs by sulforhodamine B assay relative to control; assay type: functional; details: SK-OV-3, 48 h, read-out: Activity
# 786-0 = experiment: Growth inhibition of human 786-0 cells assessed as cell growth at 1 uM incubated for 48 hrs by sulforhodamine B assay relative to control; assay type: functional; details: 786-0, 48 h, read-out: Activity
# RXF 393 = experiment: Growth inhibition of human RXF393 cells assessed as cell growth at 1 uM incubated for 48 hrs by sulforhodamine B assay relative to control; assay type: functional; details: RXF 393, 48 h, read-out: Activity
# Hs-578T = experiment: Growth inhibition of human Hs578T cells assessed as cell growth at 1 uM incubated for 48 hrs by sulforhodamine B assay relative to control; assay type: functional; details: read-out: Activity
# MDA-MB-468 = experiment: Growth inhibition of human MDA-MB-468 cells assessed as cell growth at 1 uM incubated for 48 hrs by sulforhodamine B assay relative to control; assay type: functional; details: MDA-MB-468, 48 h, read-out: Activity
# CCRF-CEM = experiment: Growth inhibition of human CCRF-CEM cells assessed as cell growth at 100 uM incubated for 48 hrs by sulforhodamine B assay relative to control; assay type: functional; details: read-out: Activity
# NCI-H226 = experiment: Growth inhibition of human NCI-H226 cells assessed as cell growth at 100 uM incubated for 48 hrs by sulforhodamine B assay relative to control; assay type: functional; details: NCI-H226, 48 h, read-out: Activity
# HCC 2998 = experiment: Growth inhibition of human HCC2998 cells assessed as cell growth at 100 uM incubated for 48 hrs by sulforhodamine B assay relative to control; assay type: functional; details: HCC 2998, 48 h, read-out: Activity
# U-251 [7] = experiment: Growth inhibition of human U251 cells assessed as cell growth at 100 uM incubated for 48 hrs by sulforhodamine B assay relative to control; assay type: functional; details: U-251, 48 h, read-out: Activity
# IGROV-1 = experiment: Growth inhibition of human IGROV1 cells assessed as cell growth at 100 uM incubated for 48 hrs by sulforhodamine B assay relative to control; assay type: functional; details: IGROV-1, 48 h, read-out: Activity
# OVCAR-3 [8] = experiment: Growth inhibition of human OVCAR3 cells assessed as cell growth at 100 uM incubated for 48 hrs by sulforhodamine B assay relative to control; assay type: functional; details: OVCAR-3, 48 h, read-out: Activity
# BT-549 = experiment: Growth inhibition of human BT549 cells assessed as cell growth at 100 uM incubated for 48 hrs by sulforhodamine B assay relative to control; assay type: functional; details: BT-549, 48 h, read-out: Activity
# [9] = read-out: LC50 (the source's name)
# [10] = read-out: pLC50 (the source's name) (converted)
smiles,measurement,setting,value
O=C(Nc1cccc(-n2cc(-c3ccncc3)c(-c3cc(O)cc(Cl)c3)n2)c1)Nc1ccc(Cl)c(C(F)(F)F)c1,growth at 10 µM,NCI-H522,-16%
same,IC50,HCT-116,1.96 µM
same,GI50,HCT-116; read-out: GI50,1.96 µM
same,CC50,HCT-116; [9],10.7 µM
same,TGI,HCT-116; read-out: TGI,44.7 µM
same,GI50,HCT-116; read-out: pGI50 (converted),1.95 µM
same,CC50,HCT-116; [10],10.7 µM
same,TGI,HCT-116; read-out: pTGI (converted),4.47 µM
same,IC50,U-251 [1],1.72 µM
same,GI50,U-251 [1]; read-out: GI50,1.72 µM
same,CC50,U-251 [1]; [9],77.5 µM
same,TGI,U-251 [1]; read-out: TGI,30 µM
same,GI50,U-251 [1]; read-out: pGI50 (converted),1.74 µM
same,CC50,U-251 [1]; [10],7.76 µM
same,TGI,U-251 [1]; read-out: pTGI (converted),3.63 µM
same,GI50,MDA-MB-435; read-out: GI50,1.73 µM
same,LC50,MDA-MB-435; read-out: LC50,55.2 µM
same,TGI,MDA-MB-435; read-out: TGI,30 µM
same,GI50,MDA-MB-435; read-out: pGI50 (converted),1.78 µM
same,LC50,MDA-MB-435; read-out: pLC50 (converted),8.51 µM
same,TGI,MDA-MB-435; read-out: pTGI (converted),3.89 µM
same,GI50,UACC-257; read-out: GI50,1.99 µM
same,CC50,UACC-257; [9],19.2 µM
same,TGI,UACC-257; read-out: TGI,63.4 µM
same,GI50,UACC-257; read-out: pGI50 (converted),2 µM
same,CC50,UACC-257; [10],19.1 µM
same,TGI,UACC-257; read-out: pTGI (converted),5.37 µM
same,GI50,T47D; read-out: GI50,2.44 µM
same,CC50,T47D; [9],91.5 µM
same,TGI,T47D; read-out: TGI,92.7 µM
same,GI50,T47D; read-out: pGI50 (converted),2.45 µM
same,CC50,T47D; [10],91.2 µM
same,TGI,T47D; read-out: pTGI (converted),9.33 µM
same,growth at 0.01 µM,K562,101%
same,growth at 0.01 µM,RPMI-8226 [2],101%
same,growth at 0.01 µM,HT-29 [3],98%
same,growth at 0.01 µM,KM12,91%
same,growth at 0.01 µM,OVCAR-5,98%
same,growth at 0.01 µM,NCI/ADR-RES,96%
same,growth at 0.1 µM,RPMI-8226 [4],101%
same,growth at 0.1 µM,HT-29 [5],93%
same,growth at 0.1 µM,OVCAR-3 [6],95%
same,growth at 1 µM,COLO 205,99%
same,growth at 1 µM,LOX IMVI,93%
same,growth at 1 µM,UACC-62,99%
same,growth at 1 µM,SK-OV-3,107%
same,growth at 1 µM,786-0,84%
same,growth at 1 µM,RXF 393,58%
same,growth at 1 µM,Hs-578T,87%
same,growth at 1 µM,MDA-MB-468,75%
same,growth at 100 µM,CCRF-CEM,-3%
same,growth at 100 µM,NCI-H226,-38%
same,growth at 100 µM,HCC 2998,-88%
same,growth at 100 µM,U-251 [7],-84%
same,growth at 100 µM,IGROV-1,-41%
same,growth at 100 µM,OVCAR-3 [8],-1%
same,growth at 100 µM,BT-549,-93%
COc1cc(Cl)cc(-c2nn(-c3cccc(NC(=O)Nc4ccc(Cl)c(Cl)c4)c3)cc2-c2ccncc2)c1,growth at 10 µM,NCI-H522,-19%
same,IC50,HCT-116,2.02 µM
same,GI50,HCT-116; read-out: GI50,2.02 µM
same,CC50,HCT-116; [9],> 100 µM
same,TGI,HCT-116; read-out: TGI,> 100 µM
same,GI50,HCT-116; read-out: pGI50 (converted),2.04 µM
same,CC50,HCT-116; [10],> 100 µM
same,TGI,HCT-116; read-out: pTGI (converted),> 100 µM
same,IC50,U-251 [1],1.7 µM
same,GI50,U-251 [1]; read-out: GI50,1.7 µM
same,CC50,U-251 [1]; [9],4.16 µM
same,TGI,U-251 [1]; read-out: TGI,60.3 µM
same,GI50,U-251 [1]; read-out: pGI50 (converted),1.7 µM
same,CC50,U-251 [1]; [10],41.7 µM
same,TGI,U-251 [1]; read-out: pTGI (converted),6.03 µM
same,GI50,MDA-MB-435; read-out: GI50,2.06 µM
same,LC50,MDA-MB-435; read-out: LC50,> 100 µM
same,TGI,MDA-MB-435; read-out: TGI,60 µM
same,GI50,MDA-MB-435; read-out: pGI50 (converted),2.09 µM
same,LC50,MDA-MB-435; read-out: pLC50 (converted),> 100 µM
same,TGI,MDA-MB-435; read-out: pTGI (converted),6.03 µM
same,GI50,UACC-257; read-out: GI50,1.54 µM
same,CC50,UACC-257; [9],> 100 µM
same,TGI,UACC-257; read-out: TGI,61.9 µM
same,GI50,UACC-257; read-out: pGI50 (converted),1.86 µM
same,CC50,UACC-257; [10],> 100 µM
same,TGI,UACC-257; read-out: pTGI (converted),5.25 µM
same,GI50,T47D; read-out: GI50,2.78 µM
same,CC50,T47D; [9],> 100 µM
same,TGI,T47D; read-out: TGI,15.9 µM
same,GI50,T47D; read-out: pGI50 (converted),2.75 µM
same,CC50,T47D; [10],> 100 µM
same,TGI,T47D; read-out: pTGI (converted),19.1 µM
same,growth at 0.01 µM,K562,101%
same,growth at 0.01 µM,RPMI-8226 [2],99%
same,growth at 0.01 µM,HT-29 [3],103%
same,growth at 0.01 µM,KM12,96%
same,growth at 0.01 µM,OVCAR-5,93%
same,growth at 0.01 µM,NCI/ADR-RES,97%
same,growth at 0.1 µM,RPMI-8226 [4],100%
same,growth at 0.1 µM,HT-29 [5],91%
same,growth at 0.1 µM,OVCAR-3 [6],101%
same,growth at 1 µM,COLO 205,91%
same,growth at 1 µM,LOX IMVI,91%
same,growth at 1 µM,UACC-62,75%
same,growth at 1 µM,SK-OV-3,100%
same,growth at 1 µM,786-0,84%
same,growth at 1 µM,RXF 393,75%
same,growth at 1 µM,Hs-578T,99%
same,growth at 1 µM,MDA-MB-468,69%
same,growth at 100 µM,CCRF-CEM,-27%
same,growth at 100 µM,NCI-H226,2%
same,growth at 100 µM,HCC 2998,-7%
same,growth at 100 µM,U-251 [7],-68%
same,growth at 100 µM,IGROV-1,8%
same,growth at 100 µM,OVCAR-3 [8],-4%
same,growth at 100 µM,BT-549,-15%
